Patent US20230242585A1, “IMMUNOMODULATORS” (Bristol-Myers Squibb Company, priority 2020, published 2023)
Starred links: 1 amine or outer side, 2 acyl side, 3 side chain; linkers in the order of their positions; H or OH if unused. Positions of bridges follow the written chain, without caps; N, C: chain ends. Non-standard residues stand in square brackets, D forms with d. Residues, ends and D or L forms follow the SMILES beside them. X39 = O=C([C@H](CNC[C@H](O)[C@@H](O)[C@H](O)C(O)CO[C@H]1O[C@H](CO)[C@H](O)[C@H](O)[C@H]1O)N[*:1])[*:2]; X54 = O=C([C@H](CCNC[C@@H](O)C(O)[C@H](O[C@@H]1OC(CO)[C@@H](O)C(O)C1O)C(O)CO)N[*:1])[*:2]; X42 = O=C([C@H](CNC[C@@H](O)C(O)[C@H](O[C@@H]1OC(CO)[C@@H](O)C(O)C1O)C(O)CO)N[*:1])[*:2]; X44 = O=C([C@H](CCNC[C@@H](O)[C@H](O)[C@@H](O)[C@@H](O)CO)N[*:1])[*:2]; X43 = O=C([C@H](CNC[C@@H](O)[C@H](O)[C@@H](O)[C@@H](O)CO)N[*:1])[*:2]; X9 = O=C([C@H](CCNC[C@@H](O)[C@@H](O)[C@@H](O)[C@H](O)CO)N[*:1])[*:2]; X8 = O=C([C@H](CNC[C@@H](O)[C@@H](O)[C@@H](O)[C@H](O)CO)N[*:1])[*:2]; Trp(1-CH2COOH) = N[C@@H](Cc1cn(CC(=O)O)c2ccccc12)C(=O)O; X37 = O=C([C@H](CNCC[C@@H](O)C(O)CO)N[*:1])[*:2]; X38 = O=C([C@H](CCNCC[C@H](O)C(O)CO)N[*:1])[*:2]; Hyp = O=C(O)[C@@H]1C[C@@H](O)CN1; NMeNle = CCCC[C@H](NC)C(=O)O; NMeA = CN[C@@H](C)C(=O)O; Dab = NCC[C@H](N)C(=O)O

Biological target: T1, PD-1/PD-L1 (Homo sapiens, UniProt Q9NZQ7)
T1 construct: TVMV protease site (linker) (C); made in house; host or cells: HEK293T cells
T1 sequence (Q9NZQ7 18-239): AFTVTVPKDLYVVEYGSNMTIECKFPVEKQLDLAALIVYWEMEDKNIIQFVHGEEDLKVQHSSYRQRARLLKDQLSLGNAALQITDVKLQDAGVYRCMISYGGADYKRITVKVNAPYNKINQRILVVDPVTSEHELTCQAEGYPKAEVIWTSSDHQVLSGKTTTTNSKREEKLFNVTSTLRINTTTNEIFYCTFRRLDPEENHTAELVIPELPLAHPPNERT
Assay: PD-1/PD-L1 Homogenous Time-Resolved Fluorescence (HTRF) binding assay
Settings: PD-L1-His 10 nM, PD-1-Ig 20 nM
Procedure, shortened: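 Compounds preincubated 15 min with PD-L1-His (residues 18-239, 10 nM) in dPBS with 0.1% BSA, 0.05% Tween-20, then PD-1-Ig (residues 25-167, 20 nM) for 15 min. Eu-cryptate anti-Ig (1 nM) and APC anti-His (20 nM) equilibrated 30 min; 665/620 nm ratio read, IC50 derived.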

IC50 [nM]	Structure (SMILES)
2.7	CCCC[C@H]1C(=O)N(C)[C@@H](CCCC)C(=O)N[C@@H](CC(C)C)C(=O)N[C@H](C(=O)NCC(N)=O)CSCC(=O)N[C@@H](Cc2ccc(O)cc2)C(=O)N(C)[C@@H](C)C(=O)N[C@@H](CC(N)=O)C(=O)N2CCC[C@H]2C(=O)N[C@@H](CNC[C@@H](O)[C@H](O)[C@@H](O)[C@@H](O)CO)C(=O)N[C@@H](CC(C)C)C(=O)N2C[C@H](O)C[C@H]2C(=O)N[C@@H](Cc2c[nH]c3ccccc23)C(=O)N[C@@H](CCNC[C@@H](O)[C@H](O)[C@@H](O)[C@@H](O)CO)C(=O)N[C@@H](Cc2cn(CC(=O)O)c3ccccc23)C(=O)N1C [Example 2034] ({CH2CO}-Y[NMeA]NP[X43]L[Hyp]W[X44][Trp(1-CH2COOH)][NMeNle][NMeNle]LCG-NH2; thioether N-14)
4.9	CCCC[C@H]1C(=O)N(C)[C@@H](CCCC)C(=O)N[C@@H](CC(C)C)C(=O)N[C@H](C(=O)NCC(N)=O)CSCC(=O)N[C@@H](Cc2ccc(O)cc2)C(=O)N(C)[C@@H](C)C(=O)N[C@@H](CC(N)=O)C(=O)N2CCC[C@H]2C(=O)N[C@@H](CNC[C@@H](O)[C@@H](O)[C@@H](O)[C@H](O)CO)C(=O)N[C@@H](CC(C)C)C(=O)N2C[C@H](O)C[C@H]2C(=O)N[C@@H](Cc2c[nH]c3ccccc23)C(=O)N[C@@H](CCNC[C@@H](O)[C@@H](O)[C@@H](O)[C@H](O)CO)C(=O)N[C@@H](Cc2cn(CC(=O)O)c3ccccc23)C(=O)N1C [Example 2036] ({CH2CO}-Y[NMeA]NP[X8]L[Hyp]W[X9][Trp(1-CH2COOH)][NMeNle][NMeNle]LCG-NH2; thioether N-14)
11	CCCC[C@H]1C(=O)N(C)[C@@H](CCCC)C(=O)N[C@@H](CC(C)C)C(=O)N[C@H](C(=O)NCC(N)=O)CSCC(=O)N[C@@H](Cc2ccc(O)cc2)C(=O)N(C)[C@@H](C)C(=O)N[C@@H](CC(N)=O)C(=O)N2CCC[C@H]2C(=O)N[C@@H](CNC[C@H](O)[C@@H](O)[C@H](O)C(O)CO[C@H]2O[C@H](CO)[C@H](O)[C@H](O)[C@H]2O)C(=O)N[C@@H](CC(C)C)C(=O)N2C[C@H](O)C[C@H]2C(=O)N[C@@H](Cc2c[nH]c3ccccc23)C(=O)N[C@@H](CCN)C(=O)N[C@@H](Cc2cn(CC(=O)O)c3ccccc23)C(=O)N1C (stereo partly drawn) [Example 2037] ({CH2CO}-Y[NMeA]NP[X39]L[Hyp]W[Dab][Trp(1-CH2COOH)][NMeNle][NMeNle]LCG-NH2; thioether N-14)
6.7	CCCC[C@H]1C(=O)N(C)[C@@H](CCCC)C(=O)N[C@@H](CC(C)C)C(=O)N[C@H](C(=O)NCC(N)=O)CSCC(=O)N[C@@H](Cc2ccc(O)cc2)C(=O)N(C)[C@@H](C)C(=O)N[C@@H](CC(N)=O)C(=O)N2CCC[C@H]2C(=O)N[C@@H](CNCC[C@@H](O)C(O)CO)C(=O)N[C@@H](CC(C)C)C(=O)N2C[C@H](O)C[C@H]2C(=O)N[C@@H](Cc2c[nH]c3ccccc23)C(=O)N[C@@H](CCNCC[C@H](O)C(O)CO)C(=O)N[C@@H](Cc2cn(CC(=O)O)c3ccccc23)C(=O)N1C (stereo partly drawn) [Example 2038] ({CH2CO}-Y[NMeA]NP[X37]L[Hyp]W[X38][Trp(1-CH2COOH)][NMeNle][NMeNle]LCG-NH2; thioether N-14)
5.2	CCCC[C@H]1C(=O)N(C)[C@@H](CCCC)C(=O)N[C@@H](CC(C)C)C(=O)N[C@H](C(=O)NCC(N)=O)CSCC(=O)N[C@@H](Cc2ccc(O)cc2)C(=O)N(C)[C@@H](C)C(=O)N[C@@H](CC(N)=O)C(=O)N2CCC[C@H]2C(=O)N[C@@H](CNC[C@@H](O)C(O)[C@H](O[C@@H]2OC(CO)[C@@H](O)C(O)C2O)C(O)CO)C(=O)N[C@@H](CC(C)C)C(=O)N2C[C@H](O)C[C@H]2C(=O)N[C@@H](Cc2c[nH]c3ccccc23)C(=O)N[C@@H](CCN)C(=O)N[C@@H](Cc2cn(CC(=O)O)c3ccccc23)C(=O)N1C (stereo partly drawn) [Example 2039] ({CH2CO}-Y[NMeA]NP[X42]L[Hyp]W[Dab][Trp(1-CH2COOH)][NMeNle][NMeNle]LCG-NH2; thioether N-14)
6.3	CCCC[C@H]1C(=O)N(C)[C@@H](CCCC)C(=O)N[C@@H](CC(C)C)C(=O)N[C@H](C(=O)NCC(N)=O)CSCC(=O)N[C@@H](Cc2ccc(O)cc2)C(=O)N(C)[C@@H](C)C(=O)N[C@@H](CC(N)=O)C(=O)N2CCC[C@H]2C(=O)N[C@@H](CNC[C@@H](O)C(O)[C@H](O[C@@H]2OC(CO)[C@@H](O)C(O)C2O)C(O)CO)C(=O)N[C@@H](CC(C)C)C(=O)N2C[C@H](O)C[C@H]2C(=O)N[C@@H](Cc2c[nH]c3ccccc23)C(=O)N[C@@H](CCNC[C@@H](O)C(O)[C@H](O[C@@H]2OC(CO)[C@@H](O)C(O)C2O)C(O)CO)C(=O)N[C@@H](Cc2cn(CC(=O)O)c3ccccc23)C(=O)N1C (stereo partly drawn) [Example 2040] ({CH2CO}-Y[NMeA]NP[X42]L[Hyp]W[X54][Trp(1-CH2COOH)][NMeNle][NMeNle]LCG-NH2; thioether N-14)
